According to patent US20120309934A1, “INTRACELLUAR TARGETING BIPODAL PEPTIDE BINDER” (priority 2009, published 2012):
One block for each molecule: values may come before it. Residues, ends and D or L forms follow the SMILES beside them. No end group written: not given here.

What was measured:
Type in all cases: binding
[1] = target: T1, nAchR (Nicotinic acetylcholine receptor) (Mus musculus, UniProt P04756); assay: SPR (Biacore) affinity to nAchR peptide fragment
T1 construct: Biotin-[…]; (32 mer), a peptide fragment of nAchR; purchased Anigen Inc. (Korea, Kwangju), custom synthesis
Experimental: Affinity was measured using BIAcore X instrument (Biacore AB, Uppsala, Sweden). ED-B and nAchR were immobilized on streptavidin (SA) chip (Biacore) by injecting 2,000 RU biotinylated-EDB. VEGF was immobilized on CM5 chip (Biacore) using EDC/NHS. PBS (pH 7.4) was used as a running buffer.

nAchR = target: T2, nAchR (Mus musculus, UniProt P04756); assay: Recombinant phage ELISA specificity to nAchR; settings: recombinant phage ELISA against several proteins
T2 construct: Biotin-[…]; (32 mer), a peptide fragment of nAchR; purchased Anigen Inc. (Korea, Kwangju), custom synthesis
Experimental: (§1) Specificity of recombinant phages to each protein was carried out using ELISA. Each protein (5 μg/ml) was seeded into wells (50 μl per well) in a 96-well ELISA plate and next day, all wells were washed with 0.1% PBST (Tween-20) three times, and blocked at room temperature for 2 hrs using 2% skim milk. Then, the solution was completely removed and the plate was washed with 0.1% PBST three times. Recombinant phages containing the peptide of the present invention were thoroughly mixed with 2% BSA. Each mixture (100 μl) was divided into wells coated with 10 proteins and kept to stand at 27° C. for 2 hrs. After washing with 0.1% PBST 5 times, HRP-conjugated anti-M13 antibodies (1:1,000 dilution; GE Healthcare) were added to each well and incubated at 27° C. for 1 hr. After washing with 0.1% PBST 5 times, 100 μl TMB was divided into each well to induce colorimetric reaction, followed by stopping the reaction adding 100 μl of 1 M HCl. The absorbance was measured at 450 nm.

MyD88 = target: T3, MyD88 (Homo sapiens, UniProt Q99836); assay: Recombinant phage ELISA specificity to MyD88; settings: recombinant phage ELISA against several proteins
T3 construct: purchased Santa Cruz Biotechnology sc-4540 WB
Experimental: as §1
The MyD88-specific bipodal-peptide binders were analyzed to have target specificity to MyD88 by the ELISA (FIG. 6f).

VEGF = target: T4, VEGF (Homo sapiens, UniProt P15692); assay: Recombinant phage ELISA specificity to VEGF; settings: recombinant phage ELISA against several proteins
T4 construct: Trx (thioredoxin, pET32a) (N, cleaved yes); made in house; host or cells: E. coli AD494 (pET32a)
T4 sequence (P15692 27-147 isoform P15692-9 limits assumed): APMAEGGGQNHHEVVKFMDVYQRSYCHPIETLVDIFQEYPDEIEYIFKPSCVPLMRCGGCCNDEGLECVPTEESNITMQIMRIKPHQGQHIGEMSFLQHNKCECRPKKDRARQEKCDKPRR
Experimental: as §1

STAT3 = target: T5, STAT3 (Homo sapiens, UniProt P40763); assay: Phage ELISA to STAT3 (clone screening and specificity); settings: recombinant phage ELISA
T5 construct: endogenous in cells; host or cells: DU145
Experimental: XL1-BLUE cells were transformed with phages recovered from the 4th biopanning step having the highest ratio of output phage to input phage, and spread in plate to produce 100-200 of plaques. Using a sterile tip, 60 plaques were inoculated in 2 ml LB-ampicillin (50 μg/ml) media and cultured at 37° C. for 5 hr with vigorous shaking. The transformed cells were infected with Ex helper phages (5×10^9 pfu/ml; OD=0.8-1.0) and cultured at 37° C. for 1 hr with shaking at 200 rpm. After removing the supernatant by centrifuging at 1,000×g for 10 min, the precipitated cells were resuspended in 1 ml LB liquid media supplemented with 50 μg/ml ampicillin and 25 μg/ml kanamycin, and cultured at 30° C. overnight with shaking at 200 rpm. The supernatant was collected by centrifuging at 10,000×g for 20 min at 4° C. and mixed with 2% skim milk, which is used in detection of phage peptides.
STAT3 (10 μg/ml), BSA (10 μg/ml) and streptavidin (10 μg/ml) each was added to 30 wells (50 μl per well) in a 96-well ELISA plate and then kept to stand at 4° C. overnight. Next day, all wells were washed with 0.1% PBST three times, and blocked at room temperature for 2 hrs using 2% skim milk diluted with PBS. Then, the solution was removed and the plate was washed with 0.1% PBST three times. […] The absorbance was measured at 450 nm to select phages which had the absorbance above 20-fold higher than BSA. […]

HSA = target: T6, HSA (Homo sapiens, UniProt P02768); assay: Recombinant phage ELISA specificity to HSA; settings: recombinant phage ELISA against several proteins
T6 construct: purchased Genetex Inc. (Irvine)
Experimental: as §1

VCAM1 = target: T7, VCAM1 (Homo sapiens, UniProt P19320); assay: Recombinant phage ELISA specificity to VCAM1; settings: recombinant phage ELISA against several proteins
T7 construct: made in house; host or cells: E. coli AD494 (pET32a)
T7 sequence (P19320 25-739): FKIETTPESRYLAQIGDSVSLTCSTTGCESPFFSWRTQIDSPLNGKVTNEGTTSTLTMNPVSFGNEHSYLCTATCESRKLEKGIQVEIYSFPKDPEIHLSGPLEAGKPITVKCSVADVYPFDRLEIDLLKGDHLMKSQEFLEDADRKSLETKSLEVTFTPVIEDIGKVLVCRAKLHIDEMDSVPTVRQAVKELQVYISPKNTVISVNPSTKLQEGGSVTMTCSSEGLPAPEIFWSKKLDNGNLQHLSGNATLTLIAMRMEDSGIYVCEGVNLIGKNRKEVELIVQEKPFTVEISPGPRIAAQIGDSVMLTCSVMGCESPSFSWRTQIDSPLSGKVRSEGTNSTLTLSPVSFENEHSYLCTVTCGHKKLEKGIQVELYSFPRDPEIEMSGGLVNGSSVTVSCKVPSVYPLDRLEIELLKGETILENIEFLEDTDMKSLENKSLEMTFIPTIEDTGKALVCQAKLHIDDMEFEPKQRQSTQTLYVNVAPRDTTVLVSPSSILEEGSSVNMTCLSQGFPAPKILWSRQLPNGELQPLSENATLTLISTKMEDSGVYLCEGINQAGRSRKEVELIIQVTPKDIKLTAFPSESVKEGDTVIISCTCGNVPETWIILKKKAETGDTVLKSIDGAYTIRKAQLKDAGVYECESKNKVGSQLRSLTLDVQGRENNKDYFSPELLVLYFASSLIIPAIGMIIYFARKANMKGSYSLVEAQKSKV
Experimental: as §1

fibronectin ED-B = target: T8, fibronectin ED-B (Homo sapiens, UniProt P02751); assay: Recombinant phage ELISA specificity to fibronectin ED-B; settings: 450 nm, 10 proteins
T8 construct: After transformation of pET28b vector carrying fibronectin ED-B into BL21 cells; made in house; host or cells: E. coli BL21 (pET28b)
Experimental: as §1

T5 sequence (P40763 whole entry, species assumed): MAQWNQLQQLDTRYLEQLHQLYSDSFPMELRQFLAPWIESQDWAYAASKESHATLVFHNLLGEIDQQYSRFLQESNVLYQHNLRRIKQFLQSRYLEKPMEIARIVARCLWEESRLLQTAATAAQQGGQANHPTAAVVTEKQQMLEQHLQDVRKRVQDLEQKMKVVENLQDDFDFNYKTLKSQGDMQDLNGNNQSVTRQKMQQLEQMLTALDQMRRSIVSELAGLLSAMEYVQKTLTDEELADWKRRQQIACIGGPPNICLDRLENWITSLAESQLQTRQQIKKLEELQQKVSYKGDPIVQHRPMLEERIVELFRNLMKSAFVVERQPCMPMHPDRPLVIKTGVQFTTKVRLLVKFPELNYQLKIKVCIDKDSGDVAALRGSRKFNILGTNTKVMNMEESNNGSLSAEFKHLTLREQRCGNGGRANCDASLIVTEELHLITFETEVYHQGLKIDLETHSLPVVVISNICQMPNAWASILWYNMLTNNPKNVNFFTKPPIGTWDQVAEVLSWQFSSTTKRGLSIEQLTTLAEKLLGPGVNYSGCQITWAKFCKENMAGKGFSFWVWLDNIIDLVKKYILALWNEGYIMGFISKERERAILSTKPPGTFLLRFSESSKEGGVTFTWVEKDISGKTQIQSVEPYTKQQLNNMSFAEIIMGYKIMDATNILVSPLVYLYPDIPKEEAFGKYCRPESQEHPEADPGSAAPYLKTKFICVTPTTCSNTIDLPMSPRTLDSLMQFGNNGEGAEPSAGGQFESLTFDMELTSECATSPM
T3 sequence (Q99836 whole entry): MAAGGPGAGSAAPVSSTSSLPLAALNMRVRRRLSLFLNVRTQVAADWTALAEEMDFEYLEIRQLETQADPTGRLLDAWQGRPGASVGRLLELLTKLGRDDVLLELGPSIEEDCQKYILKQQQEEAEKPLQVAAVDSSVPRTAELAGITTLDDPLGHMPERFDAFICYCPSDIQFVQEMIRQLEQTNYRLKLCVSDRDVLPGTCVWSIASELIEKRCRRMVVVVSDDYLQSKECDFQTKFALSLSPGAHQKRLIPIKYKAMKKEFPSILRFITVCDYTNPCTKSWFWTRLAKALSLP
T6 sequence (P02768 25-609): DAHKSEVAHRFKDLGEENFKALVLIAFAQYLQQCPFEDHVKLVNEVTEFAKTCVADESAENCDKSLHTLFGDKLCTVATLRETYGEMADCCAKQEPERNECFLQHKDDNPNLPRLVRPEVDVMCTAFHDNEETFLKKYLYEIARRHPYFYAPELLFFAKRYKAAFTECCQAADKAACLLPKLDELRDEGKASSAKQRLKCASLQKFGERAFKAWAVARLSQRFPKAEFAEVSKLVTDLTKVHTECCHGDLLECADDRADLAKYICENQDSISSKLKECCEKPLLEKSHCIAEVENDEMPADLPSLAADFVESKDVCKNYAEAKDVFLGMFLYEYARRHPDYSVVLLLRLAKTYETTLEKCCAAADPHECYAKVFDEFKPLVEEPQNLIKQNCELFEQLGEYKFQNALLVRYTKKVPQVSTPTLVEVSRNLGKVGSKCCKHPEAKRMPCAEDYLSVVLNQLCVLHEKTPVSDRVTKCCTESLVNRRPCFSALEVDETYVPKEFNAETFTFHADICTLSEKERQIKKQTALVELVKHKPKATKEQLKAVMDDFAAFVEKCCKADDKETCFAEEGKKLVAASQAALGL
T8 sequence (P02751 1271-1359 limits assumed): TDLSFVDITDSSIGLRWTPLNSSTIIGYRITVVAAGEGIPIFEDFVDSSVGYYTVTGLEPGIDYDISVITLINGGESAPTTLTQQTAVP
T2 sequence (P04756 193-224 limits assumed): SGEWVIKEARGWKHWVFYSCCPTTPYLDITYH
T1 sequence (P04756 193-224 limits assumed): as above

Molecule: EASFWLGSWTWENGKWTWKGKGTLNR [Peptide 1 (Table 3d)]
Kd [1]: 73 nM | specificity for nAchR (nAchR): has specificity

specificity for MyD88 (MyD88): has specificity
Molecule: HSHAFYGSWTWENGKWTWKGNPGWWT [Peptide 1 (Table 3f)]

Molecule: HANFFQGSWTWENGKWTWKGWKYNQS [Peptide 1 (Table 3b)]
specificity for VEGF (VEGF): has specificity

specificity to STAT3 compared to other proteins (STAT3): specificity to STAT3
Molecule: HGFQWP GSWTWENGKWTWKG AYQFLK (GSWTWENGKWTWKGAYQFLK) [Peptide 2 (STAT3)]

Molecule: AASPYKGSWTWENGKWTWKGGWRMKM [Peptide 1 (Table 3e)]
specificity for HSA (HSA): has specificity

Molecule: CC[C@H](C)[C@H](NC(=O)[C@@H]1CCCN1C(=O)[C@H](CS)NC(=O)[C@@H](NC(=O)[C@H](CO)NC(=O)[C@@H]1CCCN1C(=O)CNC(=O)[C@H](CCCCN)NC(=O)[C@H](Cc1c[nH]c2ccccc12)NC(=O)[C@@H](NC(=O)[C@H](Cc1c[nH]c2ccccc12)NC(=O)[C@H](CCCCN)NC(=O)CNC(=O)[C@H](CC(N)=O)NC(=O)[C@H](CCC(=O)O)NC(=O)[C@H](Cc1c[nH]c2ccccc12)NC(=O)[C@@H](NC(=O)[C@H](Cc1c[nH]c2ccccc12)NC(=O)[C@H](CO)NC(=O)CNC(=O)[C@@H](NC(=O)[C@H](CS)NC(=O)[C@H](CC(=O)O)NC(=O)[C@H](CCCNC(=N)N)NC(=O)[C@H](C)NC(=O)[C@@H](N)CCC(N)=O)[C@@H](C)O)[C@@H](C)O)[C@@H](C)O)[C@@H](C)CC)C(=O)O [Peptide 1 (Table 3c)] (H-QARDCTGSWTWENGKWTWKGPSICPI-OH; N-terminus and C-terminus assumed)
specificity for VCAM1 (VCAM1): has specificity

Molecule: HCSSAVGSWTWENGKWTWKGIIRLEQ [2 (Table 3a)]
absorbance for ED-B higher than that of other proteins (fibronectin ED-B): above 30 fold

Molecule: QAYYIPGSWTWENGKWTWKGLWGPEF [Peptide 1 (STAT3), QAYYIP GSWTWENGKWTWKG LWGPEF]
specificity to STAT3 compared to other proteins (STAT3): specificity to STAT3
